Measured values as given in ChEMBL document CHEMBL4811240, “Discovery of N-substituted sulfamoylbenzamide derivatives as novel inhibitors of STAT3 signaling pathway based on Niclosamide” (Eur J Med Chem, 2021).
Active and inactive are the calls of the source. The rule behind the calls is not given here.

Columns and labels:
SW480 = test: Antiproliferative activity against human SW480 cells assessed as inhibition of cell viability at 10 uM after 48 hrs by MTT assay relative to control; type: functional
L3.6pl = test: Antiproliferative activity against human L3.6 cells assessed as inhibition of cell viability at 10 uM after 48 hrs by MTT assay relative to control; type: functional
[1] = Lipophilicity, log P of the compound; type: physicochemical; conditions: octanol/water
[2] = biological target: Signal transducer and activator of transcription 3 (Homo sapiens) (UniProt P40763); test: Inhibition of STAT3 phosphorylation at Y705 residue in human MDA-MB-231 cells incubated for 2 hrs by Western blotting analysis; type: cell-based; conditions: dose 1-10 µM
Chain of Signal transducer and activator of transcription 3 (Homo sapiens) (P40763 whole entry, the tested form may be a part): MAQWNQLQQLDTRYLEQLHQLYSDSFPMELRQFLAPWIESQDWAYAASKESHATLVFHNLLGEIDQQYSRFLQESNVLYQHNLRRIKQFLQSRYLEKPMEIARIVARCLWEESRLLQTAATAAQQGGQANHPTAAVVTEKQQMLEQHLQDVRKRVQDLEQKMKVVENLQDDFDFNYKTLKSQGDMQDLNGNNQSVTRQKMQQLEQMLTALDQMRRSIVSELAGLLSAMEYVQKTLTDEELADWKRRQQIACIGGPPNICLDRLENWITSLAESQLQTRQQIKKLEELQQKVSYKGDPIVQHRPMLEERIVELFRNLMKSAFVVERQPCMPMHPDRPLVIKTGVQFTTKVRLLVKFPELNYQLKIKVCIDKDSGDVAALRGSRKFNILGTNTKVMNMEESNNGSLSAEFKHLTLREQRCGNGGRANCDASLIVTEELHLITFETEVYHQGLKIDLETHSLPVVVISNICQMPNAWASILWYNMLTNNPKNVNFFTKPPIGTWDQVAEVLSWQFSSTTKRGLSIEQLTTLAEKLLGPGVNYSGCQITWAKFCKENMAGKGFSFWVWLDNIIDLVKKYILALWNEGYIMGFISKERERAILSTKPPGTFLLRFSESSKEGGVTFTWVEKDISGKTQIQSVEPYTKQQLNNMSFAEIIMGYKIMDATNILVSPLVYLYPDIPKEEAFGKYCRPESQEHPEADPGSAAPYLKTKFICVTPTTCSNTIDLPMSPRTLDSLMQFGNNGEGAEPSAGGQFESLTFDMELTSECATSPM

MDA-MB-231 [3] = test: Effect on total STAT3 expression in human MDA-MB-231 cells at 1 to 10 uM incubated for 2 hrs by Western blotting analysis; type: functional, cell-based; conditions: dose 1-10 µM
[4] = biological target: Signal transducer and activator of transcription 3 (Homo sapiens) (UniProt P40763); test: Inhibition of IL-6 induced STAT3 phosphorylation in human MDA-MB-231 cells at 5 uM incubated for 2 hrs by Western blotting analysis; type: cell-based
[5] = test system: Epidermal growth factor receptor (Homo sapiens), P00533 [T790M]; test: Inhibition of EGFR T790M mutant (669 to 1210 residues) (unknown origin) expressed in Sf21 cells at 10 uM preincubated for 10 mins followed by peptide substrate addition relative to control
Chain of Epidermal growth factor receptor (Homo sapiens), P00533 [T790M] (P00533 whole entry T790M, the tested form may be a part): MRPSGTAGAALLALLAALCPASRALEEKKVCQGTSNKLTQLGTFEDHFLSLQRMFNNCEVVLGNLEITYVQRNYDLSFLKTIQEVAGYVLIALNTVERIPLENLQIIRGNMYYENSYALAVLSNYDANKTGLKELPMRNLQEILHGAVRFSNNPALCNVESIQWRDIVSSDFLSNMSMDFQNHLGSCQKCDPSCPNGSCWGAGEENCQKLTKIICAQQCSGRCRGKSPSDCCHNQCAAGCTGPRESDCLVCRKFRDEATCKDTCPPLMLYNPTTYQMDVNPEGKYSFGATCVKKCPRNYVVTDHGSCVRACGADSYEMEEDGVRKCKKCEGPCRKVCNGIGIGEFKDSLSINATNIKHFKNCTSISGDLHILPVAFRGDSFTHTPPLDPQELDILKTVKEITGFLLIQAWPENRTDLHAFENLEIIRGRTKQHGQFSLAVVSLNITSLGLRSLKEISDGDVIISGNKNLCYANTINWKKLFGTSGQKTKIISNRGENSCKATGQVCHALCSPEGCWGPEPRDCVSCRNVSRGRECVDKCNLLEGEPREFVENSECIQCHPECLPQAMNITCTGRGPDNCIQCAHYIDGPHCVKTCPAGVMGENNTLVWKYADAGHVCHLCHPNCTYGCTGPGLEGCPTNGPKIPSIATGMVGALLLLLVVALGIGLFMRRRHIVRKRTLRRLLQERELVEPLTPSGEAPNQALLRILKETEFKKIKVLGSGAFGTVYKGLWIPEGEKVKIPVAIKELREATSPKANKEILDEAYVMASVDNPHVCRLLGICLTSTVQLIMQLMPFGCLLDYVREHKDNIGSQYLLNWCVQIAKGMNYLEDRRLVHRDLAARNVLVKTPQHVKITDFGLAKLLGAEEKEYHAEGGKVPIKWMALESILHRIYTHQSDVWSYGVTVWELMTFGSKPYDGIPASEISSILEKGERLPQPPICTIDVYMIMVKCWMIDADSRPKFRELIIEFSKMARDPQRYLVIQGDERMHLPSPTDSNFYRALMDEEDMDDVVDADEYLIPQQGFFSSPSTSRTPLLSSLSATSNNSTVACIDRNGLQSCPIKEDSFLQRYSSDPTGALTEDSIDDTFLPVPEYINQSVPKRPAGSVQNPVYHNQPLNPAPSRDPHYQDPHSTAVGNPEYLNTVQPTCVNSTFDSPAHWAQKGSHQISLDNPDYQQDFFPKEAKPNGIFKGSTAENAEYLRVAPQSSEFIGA

[6] = biological target: Tyrosine-protein kinase JAK2 (Homo sapiens) (UniProt O60674); test: Inhibition of JAK2 (826 to 1132 residues) (unknown origin) expressed in Sf21 cells at 10 uM preincubated for 10 mins followed by peptide substrate addition relative to control
[7] = biological target: Proto-oncogene tyrosine-protein kinase Src (Homo sapiens) (UniProt P12931); test: Inhibition of full length SRC (1 to 536 residues) (unknown origin) expressed in Sf21 cells at 10 uM preincubated for 10 mins followed by peptide substrate addition relative to control
Chain of Proto-oncogene tyrosine-protein kinase Src (Homo sapiens) (P12931 2-536 limits assumed): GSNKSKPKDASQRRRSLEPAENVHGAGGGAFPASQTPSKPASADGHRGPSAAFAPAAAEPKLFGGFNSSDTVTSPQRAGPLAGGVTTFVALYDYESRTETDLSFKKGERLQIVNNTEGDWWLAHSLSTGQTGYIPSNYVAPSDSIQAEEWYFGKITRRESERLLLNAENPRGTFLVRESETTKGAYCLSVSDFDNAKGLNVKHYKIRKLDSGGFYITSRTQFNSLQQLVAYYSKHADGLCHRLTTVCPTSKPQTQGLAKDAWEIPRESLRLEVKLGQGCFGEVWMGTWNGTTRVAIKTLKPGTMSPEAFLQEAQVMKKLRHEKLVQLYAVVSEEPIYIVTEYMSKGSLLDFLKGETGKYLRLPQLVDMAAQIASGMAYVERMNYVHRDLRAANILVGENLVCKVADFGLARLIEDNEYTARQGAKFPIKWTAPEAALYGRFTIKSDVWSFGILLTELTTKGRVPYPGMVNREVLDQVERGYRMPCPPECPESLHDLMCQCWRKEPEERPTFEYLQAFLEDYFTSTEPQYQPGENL

[8] = biological target: Fibroblast growth factor receptor 1 (Homo sapiens) (UniProt P11362); test: Inhibition of FGFR1 (398 to 822 residues) (unknown origin) expressed in Sf21 cells at 10 uM preincubated for 10 mins followed by peptide substrate addition relative to control
[9] = biological target: Fibroblast growth factor receptor 2 (Homo sapiens) (UniProt P21802); test: Inhibition of N-terminal GST-tagged FGFR2 (399 to 821 residues) (unknown origin) expressed in Sf21 cells at 10 uM preincubated for 10 mins followed by peptide substrate addition relative to control
Chain of Fibroblast growth factor receptor 2 (Homo sapiens) (P21802 22-821 limits assumed): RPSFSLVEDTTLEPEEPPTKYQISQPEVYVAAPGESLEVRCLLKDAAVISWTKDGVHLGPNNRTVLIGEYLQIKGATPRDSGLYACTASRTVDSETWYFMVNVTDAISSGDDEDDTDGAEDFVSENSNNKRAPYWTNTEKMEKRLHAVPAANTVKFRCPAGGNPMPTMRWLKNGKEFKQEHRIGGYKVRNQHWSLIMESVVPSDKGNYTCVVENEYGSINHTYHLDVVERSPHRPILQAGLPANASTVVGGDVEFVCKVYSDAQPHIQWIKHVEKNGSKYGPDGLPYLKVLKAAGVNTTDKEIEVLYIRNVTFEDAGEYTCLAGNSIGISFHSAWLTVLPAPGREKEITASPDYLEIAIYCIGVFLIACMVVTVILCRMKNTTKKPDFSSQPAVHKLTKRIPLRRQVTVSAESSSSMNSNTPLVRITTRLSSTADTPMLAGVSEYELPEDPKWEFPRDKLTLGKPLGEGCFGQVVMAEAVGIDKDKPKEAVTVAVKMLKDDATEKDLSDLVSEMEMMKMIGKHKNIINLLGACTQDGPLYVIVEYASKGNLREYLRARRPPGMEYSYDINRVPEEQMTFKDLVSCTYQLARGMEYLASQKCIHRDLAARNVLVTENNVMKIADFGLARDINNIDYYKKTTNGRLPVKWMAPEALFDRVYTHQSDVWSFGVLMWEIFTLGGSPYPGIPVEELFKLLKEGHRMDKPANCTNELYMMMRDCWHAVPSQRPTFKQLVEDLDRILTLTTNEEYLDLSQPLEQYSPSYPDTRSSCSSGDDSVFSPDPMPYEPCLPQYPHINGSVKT

[10] = biological target: Vascular endothelial growth factor receptor 1 (Homo sapiens) (UniProt P17948); test: Inhibition of recombinant human GST-tagged FLT1 (781 to 1338 residues) expressed in baculovirus expression system at 10 uM preincubated for 10 mins followed by peptide substrate addition relative to control
[11] = biological target: Receptor-type tyrosine-protein kinase FLT3 (Homo sapiens) (UniProt P36888); test: Inhibition of recombinant human His-tagged FLT3 expressed in baculovirus expression system at 10 uM preincubated for 10 mins followed by peptide substrate addition relative to control
Chain of Receptor-type tyrosine-protein kinase FLT3 (Homo sapiens) (P36888 whole entry, the tested form may be a part): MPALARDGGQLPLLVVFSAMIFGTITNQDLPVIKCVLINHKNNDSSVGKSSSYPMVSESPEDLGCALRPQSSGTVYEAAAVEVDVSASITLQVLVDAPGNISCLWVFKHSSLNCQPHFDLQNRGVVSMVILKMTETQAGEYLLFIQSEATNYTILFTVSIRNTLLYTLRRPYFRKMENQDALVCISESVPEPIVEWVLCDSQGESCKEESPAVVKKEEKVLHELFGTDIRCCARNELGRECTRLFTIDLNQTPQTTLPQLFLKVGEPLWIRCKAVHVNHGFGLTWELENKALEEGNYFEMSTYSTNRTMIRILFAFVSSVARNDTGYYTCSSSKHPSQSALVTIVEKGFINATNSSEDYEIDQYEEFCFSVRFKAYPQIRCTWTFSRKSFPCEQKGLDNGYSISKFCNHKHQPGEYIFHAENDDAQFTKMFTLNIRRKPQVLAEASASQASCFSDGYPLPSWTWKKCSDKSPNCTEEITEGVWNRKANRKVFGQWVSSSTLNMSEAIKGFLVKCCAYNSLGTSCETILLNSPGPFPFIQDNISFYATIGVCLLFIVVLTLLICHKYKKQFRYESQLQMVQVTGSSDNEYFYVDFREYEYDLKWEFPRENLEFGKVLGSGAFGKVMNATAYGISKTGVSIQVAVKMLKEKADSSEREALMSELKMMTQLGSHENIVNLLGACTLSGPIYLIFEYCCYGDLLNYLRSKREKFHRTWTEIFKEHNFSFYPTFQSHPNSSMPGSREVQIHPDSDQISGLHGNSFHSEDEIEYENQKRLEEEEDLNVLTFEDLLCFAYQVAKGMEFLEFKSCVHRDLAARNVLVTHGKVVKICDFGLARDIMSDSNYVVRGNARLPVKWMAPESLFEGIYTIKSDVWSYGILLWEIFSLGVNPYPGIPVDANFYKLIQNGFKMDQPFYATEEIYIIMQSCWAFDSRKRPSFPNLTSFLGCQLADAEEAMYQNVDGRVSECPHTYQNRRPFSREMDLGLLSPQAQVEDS

[12] = biological target: Hepatocyte growth factor receptor (Homo sapiens) (UniProt P08581); test: Inhibition of MET (956 to 1390 residues) (unknown origin) expressed in Sf21 cells at 10 uM preincubated for 10 mins followed by peptide substrate addition relative to control
[13] = biological target: ALK tyrosine kinase receptor (Homo sapiens) (UniProt Q9UM73); test: Inhibition of ALK (1058 to 1620 residues) (unknown origin) expressed in Sf21 cells at 10 uM preincubated for 10 mins followed by peptide substrate addition relative to control
[14] = biological target: Cyclin-dependent kinase 1/cyclin B1 (Homo sapiens) (UniProt P06493+P14635); test: Inhibition of N-terminal GST-tagged full length CDK1/cyclin B1 (unknown origin) expressed in Sf21 cells at 10 uM preincubated for 10 mins followed by peptide substrate addition relative to control
Chain of Cyclin-dependent kinase 1/cyclin B1 (Homo sapiens) (P06493 whole entry, looked up, the tested form may be a part): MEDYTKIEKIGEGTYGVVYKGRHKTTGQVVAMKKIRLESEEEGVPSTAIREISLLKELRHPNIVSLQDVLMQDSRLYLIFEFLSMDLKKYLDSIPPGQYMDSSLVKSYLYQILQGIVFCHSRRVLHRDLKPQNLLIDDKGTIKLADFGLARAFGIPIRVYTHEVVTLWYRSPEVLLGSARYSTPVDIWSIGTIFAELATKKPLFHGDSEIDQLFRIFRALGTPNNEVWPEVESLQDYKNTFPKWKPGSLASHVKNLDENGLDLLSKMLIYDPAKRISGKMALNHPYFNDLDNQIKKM
Chain of Cyclin-dependent kinase 1/cyclin B1 (Homo sapiens) (P14635 whole entry, looked up, the tested form may be a part): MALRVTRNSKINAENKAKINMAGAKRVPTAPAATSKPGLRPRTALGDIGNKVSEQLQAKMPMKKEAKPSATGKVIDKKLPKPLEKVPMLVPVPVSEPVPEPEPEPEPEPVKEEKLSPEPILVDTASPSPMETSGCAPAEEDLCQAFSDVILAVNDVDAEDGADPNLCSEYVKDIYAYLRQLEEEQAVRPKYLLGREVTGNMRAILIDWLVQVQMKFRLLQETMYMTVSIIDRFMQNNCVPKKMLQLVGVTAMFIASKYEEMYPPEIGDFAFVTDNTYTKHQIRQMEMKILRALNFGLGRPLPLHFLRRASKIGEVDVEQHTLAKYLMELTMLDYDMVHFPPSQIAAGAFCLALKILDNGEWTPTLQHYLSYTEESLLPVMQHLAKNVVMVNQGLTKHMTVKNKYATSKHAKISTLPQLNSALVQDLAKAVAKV

[15] = biological target: Insulin-like growth factor 1 receptor (Homo sapiens) (UniProt P08069); test: Inhibition of IGF1R (959 to 1367 residues) (unknown origin) expressed in Sf21 cells at 10 uM preincubated for 10 mins followed by peptide substrate addition relative to control
[16] = biological target: Serine/threonine-protein kinase PLK1 (Homo sapiens) (UniProt P53350); test: Inhibition of full length PLK1 (1 to 603 residues) (unknown origin) expressed in Sf21 at 10 uM preincubated for 10 mins followed by peptide substrate addition relative to control
[17] = biological target: Wee1-like protein kinase (Homo sapiens) (UniProt P30291); test: Inhibition of Wee1 (215 to 646 residues) (unknown origin) expressed in Sf21 at 10 uM preincubated for 10 mins followed by peptide substrate addition relative to control
[18] = biological target: Signal transducer and activator of transcription 3 (Homo sapiens) (UniProt P40763); test: Inhibition of STAT3 promoter activity in human MDA-MB-231 cells at 1 uM incubated for 24 hrs by dual luciferase reporter assay; type: cell-based
MDA-MB-231 [19] = test: Induction of apoptosis in human MDA-MB-231 cells assessed as decrease in Bcl-xl expression at 1 to 10 uM incubated for 24 hrs by Western blot analysis; type: functional, cell-based; conditions: dose 1-10 µM
MDA-MB-231 [20] = test: Induction of apoptosis in human MDA-MB-231 cells assessed as increase in cleaved PARP expression at 1 to 10 uM incubated for 24 hrs by Western blot analysis; type: functional, cell-based; conditions: dose 1-10 µM
MDA-MB-231 [21] = test: Induction of apoptosis in human MDA-MB-231 cells assessed as increase in cleaved caspase 9 expression at 1 to 10 uM incubated for 24 hrs by Western blot analysis; type: functional, cell-based; conditions: dose 1-10 µM
MDA-MB-231 [22] = test: Induction of apoptosis in human MDA-MB-231 cells assessed as increase in cleaved caspase 3 expression at 1 to 10 uM incubated for 24 hrs by Western blot analysis; type: functional, cell-based; conditions: dose 1-10 µM
MDA-MB-231 [23] = test: Induction of apoptosis in human MDA-MB-231 cells assessed as apoptotic cells at 1 uM measured after 24 hrs by annexinV-FITC/propidium iodide staining based flow cytometry analysis (reference value: 2.49%); type: functional
MDA-MB-231 [24] = test: Induction of apoptosis in human MDA-MB-231 cells assessed as apoptotic cells at 10 uM measured after 24 hrs by annexinV-FITC/propidium iodide staining based flow cytometry analysis (reference value: 2.49%); type: functional
MDA-MB-231 [25] = test: Inhibition of human MDA-MB-231 cells migration after 24 hrs by crystal violet staining based transwell migration assay; type: functional, cell-based; conditions: dose 0.1-1 µM
MDA-MB-231 [26] = test: Inhibition of human MDA-MB-231 cells migration a 1000 nM after 24 hrs by crystal violet staining based transwell migration assay; type: functional, cell-based
[27] = Toxicity in BALB/c nude mouse xenografted with human MDA-MB-231 cells assessed as effect on body weight at 30 mg/kg, ig administered every two days; type: organism-based; conditions: in vivo, po
[28] = biological target: Serine/threonine-protein kinase PAK 1 (Homo sapiens) (UniProt Q13153); test: Inhibition of full length N-terminal GST-tagged PAK1 (1 to 545 residues) (unknown origin) expressed in Sf21 at 10 uM preincubated for 10 mins followed by peptide substrate addition relative to control

- logP [1]: 1.83
- inhibition [2]: Dose-Dependent Effect
- inhibition [4]: 100%
- inhibition [5]: 2.23%
- inhibition [6]: 4.77%
- inhibition [7]: 1.42%
- inhibition [8]: 3.58%
- inhibition [9]: 5.28%
- inhibition [10]: 4.33%
- inhibition [11]: 10.2%
- inhibition [12]: 0.13%
- inhibition [13]: 5.19%
- inhibition [14]: -2.27%
- inhibition [15]: 2.93%
- inhibition [16]: 5.19%
- inhibition [17]: 4.76%
- inhibition [18]: 87.9%
- inhibition [28]: 9.32%
SMILES: CC(C)(C)OC(=O)c1ccc(NC(=O)c2ccc(Cl)c(S(N)(=O)=O)c2)cc1
- inhibition at 10 µM (SW480): 80.9%
- inhibition at 10 µM (L3.6pl): 21.9%
- inhibition (MDA-MB-231 [3]): Active
- Activity (MDA-MB-231 [19]): Active
- Activity (MDA-MB-231 [20]): Active
- Activity (MDA-MB-231 [21]): Active
- Activity (MDA-MB-231 [22]): Active
- Activity (MDA-MB-231 [23]): 6.75%
- Activity (MDA-MB-231 [24]): 25.63%
- inhibition (MDA-MB-231 [25]): Dose-Dependent Effect
- inhibition (MDA-MB-231 [26]): Active
- Activity [27]: Non-Toxic
